Assay results from ChEMBL document CHEMBL1149581, “Colon-specific, mutual azo prodrug of 5-aminosalicylic acid with L-tryptophan: synthesis, kinetic studies and evaluation of its mitigating effect in trinitrobenzenesulfonic acid-induced colitis in rats” (Bioorg Med Chem, 2007).
Activity calls are given as the source filed them. The rule behind the calls is not given here.

Key:
Rattus norvegicus [1] = assay: Ulcerogenic activity in Wistar rat at 2290 mg/kg, po by cold stress method relative to control; type: toxicity, organism-based; design: dose 2290 mg/kg, route oral; details: in vivo
[2] = Partition coefficient, log P in n-octanol/phosphate buffer at pH 7.4; type: physicochemical
Rattus norvegicus [3] = assay: Ulcerogenic activity in Wistar rat at 3000 mg/kg, po by cold stress method relative to control; type: toxicity, organism-based; design: dose 3000 mg/kg, route oral; details: in vivo
Rattus norvegicus [4] = assay: Effect on TNBS-induced experimental colitis in po dosed Sprague-Dawely rat assessed as colon to body weight ratio after 5 days relative to control; type: functional
[5] = Aqueous solubility of the compound; type: physicochemical
Rattus norvegicus [6] = assay: Decrease in TNBS-induced colonic damage in po dosed Sprague-Dawely rat; type: functional, organism-based
Rattus norvegicus [7] = assay: Effect on TNBS-induced experimental colitis in rectally dosed Sprague-Dawely rat assessed as colon to body weight ratio relative to control; type: functional
Rattus norvegicus [8] = assay: Ulcerogenic activity in Wistar rat at 2829 mg/kg, po by cold stress method relative to control; type: toxicity, organism-based; design: dose 2829 mg/kg, route oral; details: in vivo

With `Nc1ccc(O)c(C(=O)O)c1` [MESALAMINE] the UI (Rattus norvegicus [1]) was 59.6 and the logD [2] was 0.64.
`O=C(O)c1cc(/N=N/c2ccc(S(=O)(=O)Nc3ccccn3)cc2)ccc1O` [SULFASALAZINE] showed a UI (Rattus norvegicus [3]) of 9 and a Ratio (Rattus norvegicus [4]) of 0.008.
With `O=C([O-])c1cc(/N=N/C(Cc2c[nH]c3ccccc23)C(=O)[O-])ccc1O.[Na+].[Na+]` (centres undefined) the solubility [5] was 280 mg/mL, the Activity (Rattus norvegicus [6]) was “Active” and the Ratio (Rattus norvegicus [7]) was 0.0073. The UI (Rattus norvegicus [8]) was 13 and the logD [2] was 0.26.
